Source: patent EP3479863B1, “COMPOSITIONS, METHODS AND ARTICLES CONCERNING PHARMACEUTICAL NITRIC OXIDE AND CONTROLLED PATIENT DELIVERY SYSTEMS THEREOF” (Mallinckrodt Pharmaceuticals Ireland Limited, priority 2010, dated 2012)

Tests used:
[1] = two lines for one acid = two pKa values; cited from earlier work
[2] = NO release from powdered acids hit by single 50 nL sodium nitrite droplets, measured with NO analyzer; details: Example 2; for Time to 90% AUC: 7 mg finely ground powder per well, 50 nL droplet of 6M NaNO2, air flow 500 mL/minute; for NO release kinetics: comparison in words, FIG. 12 and FIG. 13
Protocol: Powdered acids of different acidity (TABLE 1) and reducing capacity, or mixtures at equal weight ratios thereof, were tested for their ability to promote NO release from concentrated aqueous solutions of sodium nitrite. Acids were finely ground and about 5-7 mg placed into wells of a reaction plate contained within a reaction chamber equipped with a microvalve capable of dispensing single 50 nL liquid droplets of sodium nitrite into each well. The reaction chamber was continuously flushed with air at defined flow rates and the NO concentration in the air measured with a […]® NO Analyzer 280i. When NO concentrations exceeded the measurement range of the NO analyzer, the air stream was diluted with a nitrogen stream of defined flow rate prior to measurement and the measured NO concentration corrected for the dilution factor. 50 ml of 6M NaNO2 stock solution was prepared and degassed for 15 minutes. 10 mL of the stock solution was filled into a liquid reservoir feeding a microvalve capable of dispensing single 50 nL liquid droplets sequentially into each of six wells of a reaction plate contained within a reaction chamber. The air flow rate through the reaction chamber was set to 500 mL/minute. The air flow was diluted with nitrogen gas to a flow rate of 1586 mL/minute to allow measurement of the entire NO peak with a […]® NO Analyzer 280i. The NO analyzer was calibrated using a 45 ppm NO calibration gas prior to the experiment. […] The microvalve fired a 50 nL droplet into each well. The timecourse of NO production was measured with the NO Analyzer. The following time parameters were analyzed for each NO peak: AUC, time to reaching 90% of the AUC, and maximum peak NO concentration.

[3] = NO release from croconic acid coated MAGNA nylon tape versus particulate croconic acid, single 50 nL droplets; details: single 50 nL droplets of 6M NaNO2
Protocol: 10 grams of croconic acid were milled for 5 minutes using a bench top micromill and sifted through a 32 µm sieve. 100 mg of milled acid were suspended into 1 mL of absolute MeOH supplemented with 2% v/v cornstarch and 0.05% v/v glycerol. The yellow-orange suspension was spread evenly as a single coat using an acid resistant brush onto a 5 mm by 18 inch MAGNA® hydrophobic nylon tape of 1 .2 µm pore size. The tape was air-dried for 30 min by suspending it horizontally at both ends. The croconic acid formed a dark yellow slightly powdery coating on top of the nylon membrane; the average surface density of croconic acid deposited on the tape was 2.66 mg/cm^2.
NO release in response to single 50 nL droplets of 6M NaNO2 is shown in FIG 14 and TABLE 3, compared to the NO release from croconic acid powder. The croconic acid coated tape produced 85.3% of the NO compared to the bulk croconic acid powder, based upon the AUC.
Particulate croconic acid of particle size < 20µm produced by dry-milling for 45 min was formulated as 500 mg/ml suspension in USP ethanol by 10 min of sonication with additives of 0.05% v/v glycerol and 2% v/v starch and coated onto MAGNA® hydrophobic nylon tape in two sequential air-dried coats, yielding an average croconic acid surface density of 4.42 mg/cm^2.
NO release in response to single 50 nL droplets of 6M NaNO2 is shown in FIG. 15 and TABLE 4, compared to the NO release from particulate croconic acid. The croconic acid coated tape yielded 93.9% of the NO compared to the bulk croconic acid powder.
In another example, the procedure of the preceding paragraph was repeated by suspending 350 mg of milled croconic acid in 1 mL of isopropanol and preparing two sequential air-dried coats on the MAGNA® hydrophobic nylon strip yielding a croconic acid deposited as a dark yellow coating on the nylon membrane. NO release in response to single 50 nL droplets of 6M NaNO2 is shown in FIG. 16 and TABLE 5, compared to the NO release from particulate croconic acid. The croconic acid coated tape yielded 84.7% of the NO compared to the bulk croconic acid powder.

[4] = cited from earlier work

In the case of O=C(O)C(O)c1c(F)c(F)cc(F)c1F (centres unmarked) [2,3,5,6-Tetrafluoromandelic acid], the pKa [1] is given as <<3.4.
For O=C(O)C(O)c1ccccc1F (centres unmarked) [2-Fluoro-mandelic acid], the pKa [1] is listed as <3.4.
For O=C1O[C@H]([C@@H](O)CO)C(O)=C1O [Ascorbic Acid, reference compound], the “Time to 90% AUC” value [2] is given as 13.98 s, the NO release kinetics [2] is given as “slow, protracted and irregular” and the pKa [1] is given as 11.6.
For O=C(O)C(O)c1ccccc1 (centres unmarked) [Mandelic acid], the pKa [1] is listed as 3.37.
In the case of O=C(O)C(Cl)(Cl)Cl [trichlomacetic acid], the pKa [1] is given as 0.77.
With Croconic Acid the “Time to 90% AUC” value [2] was 1.1 s, the NO release kinetics [2] was “superior NO release kinetics over ascorbic acid while releasing similar quantities of NO” and the “Time to 90% AUC” value ([3]; Example 4A, suspension in MeOH, single coat, 1.2 µm pore size tape) was 0.79 s. The “Time to 90% AUC” value ([3]; Example 4B, particle size < 20µm, suspension in USP ethanol, two coats) was 0.85 s and the “Time to 90% AUC” value ([3]; Example 4C, suspension in isopropanol, two coats) was 0.77 s.
In the case of nonylphenol ethoxylate [NP-9], the surface tension ([4]; 0.1 % v/v aqueous solution at 25°C) is given as 30 Dynes/cm and the viscosity ([4]; at 25°C) is given as 243 cp.
